The text below walks through data of article PMC8468439, “Oxazinethione Derivatives as a Precursor to Pyrazolone and Pyrimidine Derivatives: Synthesis, Biological Activities, Molecular Modeling, ADME, and Molecular Dynamics Studies” (Molecules, 2021).

≈ marks a conversion by molar mass, not a printed value.

Data set [1] relates to A. flavus. The experiment in a line: Antimicrobial screening, hole-plate and filter disc. It counts as cell-based, Aspergillus flavus. Further details: key to A (activity): (-) no activity; (+) mild activity with diameter zone of (0.5–0.7 cm); (++) moderate activity with diameter zone of (1.1–1.2 cm); (+++) marked with diameter zone of (1.6–1.8 cm). Particulars: for A (activity): zone width of inhibition, compounds dissolved in 10% acetone. The protocol: (§1) All investigations were executed at the Biology department, Faculty of Science, Benha University, Egypt. The antimicrobial activities of all the synthesized molecules were determined in vitro, using the hole-plate and filter disc methodologies. The investigated compounds were dissolved in 10% acetone (v/v). The width of the inhibition zone indicated the potency of the antimicrobial activity: (-) no antimicrobial activity, (+) mild activity with the diameter of the zones equal to (0.5–0.7 cm), (++) moderate activity with the diameter of the zones equal to (1.1–1.2 cm), and (+++) marked activity with the diameter of the zones equal to (1.6–1.8 cm).

For data set [2], the system named is F. moniliform. Described as above. It counts as cell-based, Fusarium moniliform. Particulars: for A (activity): zone width of inhibition, compounds dissolved in 10% acetone. As for the experimental part: as §1
Data set [3] has as its system S. aureus. The description is as above. It counts as cell-based, Staphylococcus aureus. Further details: key to A (activity): (-) no activity; (+) mild activity with diameter zone of (0.5–0.7 cm); (++) moderate activity with diameter zone of (1.1–1.2 cm); (+++) marked with diameter zone of (1.6–1.8 cm). As to conditions: for A (activity): zone width of inhibition, compounds dissolved in 10% acetone. The protocol:
as §1

Data set [4] relates to E. coli. The data set is described as above. Format: cell-based, Escherichia coli. Also noted: key to A (activity): (-) no activity; (+) mild activity with diameter zone of (0.5–0.7 cm); (++) moderate activity with diameter zone of (1.1–1.2 cm); (+++) marked with diameter zone of (1.6–1.8 cm). Particulars: for A (activity): zone width of inhibition, compounds dissolved in 10% acetone. The protocol:
as §1

Data set [5] concerns Ovcar-3 for ovarian cancer. In words: SRB cytotoxicity assay. Format: cell-based. As to conditions: Homo sapiens, 72 h, 3 days. As for the experimental part:
(§2) The cells were supplied by the Egyptian Holding Company for Biological Products and Vaccines (VACSERA) and then kept in the tissue culture unit. The growth of the cells was affected in RPMI-1640 medium, supplemented with 10% heat-inactivated FBS, 50 units/mL of penicillin, and […] of streptomycin, and maintained in a humidified atmosphere with 5% carbon dioxide. The cells were maintained as monolayer cultures by serial sub-culturing, with cell culture reagents obtained from Lonza (Basel, Switzerland). The antitumor activities of the complexes were assessed against three cell lines MCF-7 for breast cancer, Ovcar-3 for ovarian cancer, and Hela for cervical cancer. In addition, all the results obtained were compared and validated to the LCC-MK2 normal cell line. In the literature, the sulforhodamine B (SRB) assay method was applied to determine the cytotoxicity, as described in [39]. Exponentially growing cells were collected using 0.25% Trypsin-EDTA and seeded in 96-well plates at 1000–2000 cells/well in RBMI-1640-supplemented medium. The cells were kept in the medium for 24 h and then incubated for 3 days with various concentrations of the copper complexes. Following 3 days of treatment, the cells were fixed with 10% trichloroethanoic acid for 1 h at 4 °C. Wells were stained for 10 min at room temperature with 0.4% SRBC dissolved in 1% acetic acid. The plates were air-dried for 24 h, and the dye was dissolved in Tris-HCl for 5 min with shaking at 1600 rpm. An ELISA microplate reader (ChroMate-4300, FL, USA) was used to assess each well’s optical density (O.D.) at 564 nm. The IC50 values were calculated from a Boltzmann sigmoidal concentration-response curve using the nonlinear regression fitting models (Graph Pad, Prism Version 9).

For data set [6], the system named is LCC-MK2 normal cell line. The experiment in a line: SRB cytotoxicity assay. It counts as cell-based. Particulars: 72 h, 3 days. The protocol: as §2
For data set [7], the system named is Hela for cervical cancer. In words: SRB cytotoxicity assay. It counts as cell-based. Particulars: Homo sapiens, 72 h, 3 days. The protocol: as §2
In data set [8] the test system is MCF-7 for breast cancer. The experiment in a line: SRB cytotoxicity assay. Format: cell-based. Particulars: Homo sapiens, MCF7, 72 h, 3 days. The protocol: as §2

With `N#CC12C(=O)NC(=O)N=C1N=C(CN1C(=O)c3c(Br)c(Br)c(Br)c(Br)c3C1=O)OC2c1ccccc1` (stereo not shown) [Compound 2a], the melting point is 98 to 100 °C. In data set [1], the “A (activity)” value is reported as “-”. In [2], the “Mic (minimum inhibitory concentration)” value was 125 and the “A (activity)” value was “+ ((+) mild activity with diameter zone of (0.5–0.7 cm))”. Further, in [3], the “Mic (minimum inhibitory concentration)” value was found to be 125 and the “A (activity)” value is “+ ((+) mild activity with diameter zone of (0.5–0.7 cm))”. For the same compound, in data set [4], the “A (activity)” value is on record as “-”.
As to `N#CC12C(=O)NC(=S)N=C1N=C(CN1C(=O)c3c(Br)c(Br)c(Br)c(Br)c3C1=O)OC2c1ccccc1` (stereo not shown) [Compound 2b], the “A (activity)” value is given as “-” in [1], “+ ((+) mild activity with diameter zone of (0.5–0.7 cm))” in data set [2], “++ ((++) moderate activity with diameter zone of (1.1–1.2 cm))” in data set [3] and “+ ((+) mild activity with diameter zone of (0.5–0.7 cm))” in data set [4]. In addition, the “Mic (minimum inhibitory concentration)” value in data set [2] came out at 125; in data set [3], 250; in data set [4], 250. In addition, the IC50 was determined as 15.2 µg/mL (≈ 20.1 µM) in data set [5], 89.3 µg/mL (≈ 118 µM) in data set [6], 22.8 µg/mL (≈ 30.1 µM) in data set [7] and 13.8 µg/mL (≈ 18.2 µM) in data set [8].
Regarding `N#CC12C(=N)NN=C1N=C(CN1C(=O)c3c(Br)c(Br)c(Br)c(Br)c3C1=O)OC2c1ccccc1` (stereo not shown) [Compound 3, 2-(tetrabromophalimidmethyl)-6-phenyl-5-yano-1,3-oxazino[4,5-d]-1,2-pyrazole2[H]-3-one], the “Mic (minimum inhibitory concentration)” value in data set [1], in data set [2], in data set [3] and in [4] was 125 in each case. The “A (activity)” value in [1], in [2], in data set [3] and in data set [4] was “+ ((+) mild activity with diameter zone of (0.5–0.7 cm))” each time. The IC50 in [5] is 14.6 µg/mL (≈ 20.4 µM); in data set [6], 206 µg/mL (≈ 289 µM); in data set [7], 9.14 µg/mL (≈ 12.8 µM); in [8], 15.5 µg/mL (≈ 21.7 µM).
Turning to `N#CC12C(=N)NC(=O)N=C1N=C(CN1C(=O)c3c(Br)c(Br)c(Br)c(Br)c3C1=O)OC2c1ccccc1` (stereo not shown) [Compound 4a], the “Mic (minimum inhibitory concentration)” value in data set [1], in data set [2] and in [4] was 250 in each case. Also, the “A (activity)” value in data set [1] is listed as “+++ ((+++) marked with diameter zone of (1.6–1.8 cm))”; in [2], “+ ((+) mild activity with diameter zone of (0.5–0.7 cm))”; in data set [3], “-”; in [4] it was “+ ((+) mild activity with diameter zone of (0.5–0.7 cm))”. The IC50 was 15.9 µg/mL (≈ 21.4 µM) in data set [5], 68.9 µg/mL (≈ 92.9 µM) in [6], 12.9 µg/mL (≈ 17.4 µM) in data set [7] and 21.7 µg/mL (≈ 29.2 µM) in data set [8].
`N#CC12C(=N)NC(=S)N=C1N=C(CN1C(=O)c3c(Br)c(Br)c(Br)c(Br)c3C1=O)OC2c1ccccc1` (stereo not shown) [Compound 4b]: the “A (activity)” value was “-” in data set [1], “+ ((+) mild activity with diameter zone of (0.5–0.7 cm))” in [2], “++ ((++) moderate activity with diameter zone of (1.1–1.2 cm))” in [3] and “+ ((+) mild activity with diameter zone of (0.5–0.7 cm))” in data set [4]. Besides, the results for the “Mic (minimum inhibitory concentration)” value in data set [2], in data set [3] and in data set [4] were 125, 250 and 250, respectively. Also, the IC50 amounted to 11.2 µg/mL (≈ 14.8 µM) in [5], 170 µg/mL (≈ 225 µM) in data set [6], 14.8 µg/mL (≈ 19.5 µM) in [7] and 16.6 µg/mL (≈ 21.8 µM) in data set [8].
In the case of `N#CC12C(=O)NN=C1N=C(CN1C(=O)c3c(Br)c(Br)c(Br)c(Br)c3C1=O)OC2c1ccccc1` (stereo not shown) [Compound 5, 2-(tetrabromophalimidmethyl)-6-phenyl-5-yano-1,3-oxazino[4,5-d]-1,2-pyrazole2[H]-3-imide], the “Mic (minimum inhibitory concentration)” value in [1], in [2], in [3] and in [4] was 250 each time. For the same compound, the “A (activity)” value in [1] was “+++ ((+++) marked with diameter zone of (1.6–1.8 cm))”; in [2] it was “+ ((+) mild activity with diameter zone of (0.5–0.7 cm))”; in [3], “++ ((++) moderate activity with diameter zone of (1.1–1.2 cm))”; in data set [4], “++ ((++) moderate activity with diameter zone of (1.1–1.2 cm))”. For the same compound, the IC50 in data set [5] turned out to be 10.1 µg/mL (≈ 14.1 µM); in data set [6] it was 191 µg/mL (≈ 267 µM); in data set [7], 5.69 µg/mL (≈ 7.96 µM); in [8], 12.3 µg/mL (≈ 17.2 µM).
